# Results as given in patent EP1096933B1, “USE OF AN INHIBITOR OF CYTOCHROME P450 OPTIONALLY COMBINED WITH AN ANTIFUNGAL AGENT FOR TREATING MYCOSES” (priority 1998, dated 2000).
# Like-named read-outs stand apart in the source and are kept apart here.
# What was measured:
# Test in all cases: growth of strains streaked on Sabouraud agar containing the products
# Assay type in all cases: cell-based
# [1] = test system: Epidermophyton floccosum; settings: Epid.Flocosum, read-out: % DE CROISSANCE
# Protocol: (§1) Ces molécules ont été incorporées dans un milieu gélosé dit de Sabouraud (peptone 10g/l, glucose 10 g/l, gomme agar 15 g/l).
# (§2) Des souches de diverses espèces de champignons ont été ensemencées par stries par la méthode de Stires.
# (§3) Le pourcentage de croissance a été mesuré au cours du temps, pour des périodes allant jusqu'à 21 jours, pour certaines des souches testées.
# (§4) Les quantités de pipéronyl butoxyde, et de cyclopyroxolamine utilisées sont identiques et sont de 10 ou 20 µg/ml dans le cas de l'association entre ces deux composés.
# (§5) Dans le cas de l'association entre le pipéronyl butoxyde et l'éconazole, elles sont respectivement de 10 ou 20 µg/ml de pipéronyl butoxyde et de 1 µg/ml d'éconazole.
# (§6) Des souches appartenant aux espèces suivantes ont été testées: Microsporum canis, Trichophyton rubrum, Trichophyton interdigitale, Trichophyton mentagrophytes, Microsporum persicolor, Epidermophyton floccosum, Trichophyton violaceum et Trichophyton soudanense.
# (§7) L'activité du pipéronyl butoxyde seul a été testée à diverses concentrations, comme indiqué dans le tableau 1 sur le milieu de Sabouraud, dépourvu de tout autre fongicide.
# [2] = test system: Microsporum canis; settings: read-out: % DE CROISSANCE
# Protocol: as §1, §2, §3, §4, §5, §6, §7
# [3] = test system: Microsporum persicolor; settings: Nannizzia persicolor, Micro.Persicolor, 10µg/ml each product, read-out: % DE CROISSANCE
# Protocol: as §1, §2, §3, §4, §5, §6, §7
# [4] = test system: Trichophyton interdigitale; settings: Tric.Interdigitale, read-out: % DE CROISSANCE
# Protocol: as §1, §2, §3, §4, §5, §6, §7
# [5] = test system: Trichophyton mentagrophytes; settings: Tric.Mentagophytes, read-out: % DE CROISSANCE
# Protocol: as §1, §2, §3, §4, §5, §6, §7
# [6] = test system: Trichophyton rubrum; settings: Tric.Rubrum, read-out: % DE CROISSANCE
# Protocol: as §1, §2, §3, §4, §5, §6, §7
# [7] = test system: Trichophyton soudanense; settings: Tric.Soudanese, read-out: % DE CROISSANCE
# Protocol: as §1, §2, §3, §4, §5, §6, §7
# [8] = test system: Trichophyton violaceum; settings: Tric.Violaceum, read-out: % DE CROISSANCE
# Protocol: as §1, §2, §3, §4, §5, §6, §7
# [9] = 144 h, J6, 10µg/ml each product
# [10] = 240 h, J10, 10µg/ml each product
# [11] = 336 h, J14, 10µg/ml each product
# [12] = 144 h, J6, 20µg/ml each product
# [13] = 240 h, J10, 20µg/ml each product
# [14] = 336 h, J14, 20µg/ml each product
compound,measurement,setting,value
"Cc1cc(C2CCCCC2)n(O)c(=O)c1 [Cyclopiroxolamine, cyclopiroxolamine]",activity at 10 µg/mL,"[1]; 0 h, J0, 10µg/ml each product",0%
same,activity at 10 µg/mL,"[1]; 96 h, J4, 10µg/ml each product",0%
same,activity at 10 µg/mL,[1]; [9],0%
same,activity at 10 µg/mL,[1]; [10],85%
same,activity at 10 µg/mL,[1]; [11],100%
same,activity at 20 µg/mL,[2]; 0 h,0%
same,activity at 20 µg/mL,[2]; 96 h,5%
same,activity at 20 µg/mL,[2]; 144 h,20%
same,activity at 20 µg/mL,[2]; 240 h,60%
same,activity at 20 µg/mL,[2]; 336 h,100%
same,activity at 10 µg/mL,"[3]; 0 h, J0",0%
same,activity at 10 µg/mL,"[3]; 96 h, J4",0%
same,activity at 10 µg/mL,"[3]; 144 h, J6",30%
same,activity at 10 µg/mL,"[3]; 240 h, J10",75%
same,activity at 10 µg/mL,"[3]; 336 h, J14",100%
same,activity at 20 µg/mL,"[4]; 0 h, J0, 20µg/ml each product",0%
same,activity at 20 µg/mL,"[4]; 96 h, J4, 20µg/ml each product",5%
same,activity at 20 µg/mL,[4]; [12],10%
same,activity at 20 µg/mL,[4]; [13],80%
same,activity at 20 µg/mL,[4]; [14],90%
same,activity at 20 µg/mL,"[5]; 0 h, J0, 20µg/ml each product",0%
same,activity at 20 µg/mL,"[5]; 96 h, J4, 20µg/ml each product",5%
same,activity at 20 µg/mL,[5]; [12],60%
same,activity at 20 µg/mL,[5]; [13],100%
same,activity at 20 µg/mL,[5]; [14],100%
same,activity at 20 µg/mL,"[6]; 0 h, J0, 20µg/ml each product",0%
same,activity at 20 µg/mL,"[6]; 96 h, J4, 20µg/ml each product",0%
same,activity at 20 µg/mL,[6]; [12],50%
same,activity at 20 µg/mL,[6]; [13],80%
same,activity at 20 µg/mL,[6]; [14],100%
same,activity at 10 µg/mL,"[7]; 0 h, J0, 10µg/ml each product",0%
same,activity at 10 µg/mL,"[7]; 96 h, J4, 10µg/ml each product",0%
same,activity at 10 µg/mL,[7]; [9],0%
same,activity at 10 µg/mL,[7]; [10],30%
same,activity at 10 µg/mL,[7]; [11],60%
same,activity at 10 µg/mL,"[8]; 0 h, J0, 10µg/ml each product",0%
same,activity at 10 µg/mL,"[8]; 96 h, J4, 10µg/ml each product",0%
same,activity at 10 µg/mL,[8]; [9],40%
same,activity at 10 µg/mL,[8]; [10],60%
same,activity at 10 µg/mL,[8]; [11],100%
